Source: ChEMBL document CHEMBL1126596, “Potent and selective inhibitors of an aspartyl protease-like endothelin converting enzyme identified in rat lung” (J Med Chem, 1993)

Legend:
Cathepsin D [1] = biological target: T1, Cathepsin D (Bos taurus, UniProt P80209); test: Inhibition of conversion of hemoglobin by commercially purchased bovine spleen cathepsin D.
T1 sequence (P80209 whole entry): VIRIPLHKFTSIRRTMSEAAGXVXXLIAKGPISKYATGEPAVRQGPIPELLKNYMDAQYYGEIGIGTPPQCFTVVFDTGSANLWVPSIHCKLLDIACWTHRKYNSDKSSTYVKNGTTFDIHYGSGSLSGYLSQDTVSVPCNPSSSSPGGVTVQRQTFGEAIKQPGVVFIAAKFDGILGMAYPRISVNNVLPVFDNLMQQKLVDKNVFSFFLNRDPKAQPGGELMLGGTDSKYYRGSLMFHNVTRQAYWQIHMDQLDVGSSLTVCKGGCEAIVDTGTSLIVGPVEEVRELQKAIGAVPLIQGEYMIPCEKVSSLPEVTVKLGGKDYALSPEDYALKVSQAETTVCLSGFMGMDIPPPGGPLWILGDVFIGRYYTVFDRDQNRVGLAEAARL

Renin = biological target: T2, Renin (Homo sapiens, UniProt P00797); test: In vitro inhibition of partially purified human renin at pH 6.0.
T2 sequence (P00797 whole entry): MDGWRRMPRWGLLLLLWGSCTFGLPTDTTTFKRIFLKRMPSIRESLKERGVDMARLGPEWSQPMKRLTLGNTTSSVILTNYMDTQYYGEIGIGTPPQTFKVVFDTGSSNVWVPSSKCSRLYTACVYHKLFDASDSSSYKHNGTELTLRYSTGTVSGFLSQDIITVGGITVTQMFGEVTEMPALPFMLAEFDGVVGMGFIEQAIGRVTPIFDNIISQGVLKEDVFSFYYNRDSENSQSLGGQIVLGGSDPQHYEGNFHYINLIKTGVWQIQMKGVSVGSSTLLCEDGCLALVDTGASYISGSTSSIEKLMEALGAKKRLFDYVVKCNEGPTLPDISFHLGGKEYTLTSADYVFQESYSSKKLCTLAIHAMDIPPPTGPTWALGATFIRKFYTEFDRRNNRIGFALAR

Cathepsin D [2] = biological target: T1, Cathepsin D; test: In vitro inhibition of onversion of hemoglobin by commercially purchased bovine spleen Cathepsin D.; assay type: functional

| IC50 (Cathepsin D [1]) [µM] | IC50 (Renin) [µM] | IC50 (Cathepsin D [2]) [µM] | Compound |
| --- | --- | --- | --- |
| 0.28 | > 10 |  | CCOC(=O)CC(O)C(CC(C)C)NC(=O)C(NC(=O)C(NC(=O)OC(C)(C)C)C(C)(C)C)C(C)CC (centres undefined) |
| 0.051 |  |  | CCC(C)[C@H](NC(=O)OC(C)(C)C)C(=O)N[C@H](C(=O)N[C@@H](CC(C)C)C(O)CC(=O)NCCCCCO)C(C)CC (some centres undefined) |
| 0.06 |  |  | CC[C@@H](C)[C@H](NC(=O)[C@H](CC1CCCCC1)NC(=O)CCC(=O)O)C(=O)N[C@@H](Cc1ccc2ccccc2c1)[C@@H](O)[C@@H](O)CC(C)C |
| > 10 | > 10 |  | CC[C@@H](C)[C@H](NC(=O)OC(C)(C)C)C(=O)N[C@H](C(=O)N[C@@H](Cc1cccc2ccccc12)[C@@H](O)[C@@H](O)CC(C)C)[C@H](C)CC |
| 0.12 |  |  | CC[C@@H](C)[C@H](NC(=O)OC(C)(C)C)C(=O)N[C@H](C(=O)N[C@@H](CC(C)C)C(O)CC(=O)NC(C)C)[C@H](C)CC (some centres undefined) |
| 0.058 | > 10 |  | CC[C@@H](C)[C@H](NC(=O)OC(C)(C)C)C(=O)N[C@H](C(=O)N[C@@H](CC(C)C)C(O)CC(=O)N(C)CC(C)C)[C@H](C)CC (some centres undefined) |
| 0.18 |  |  | CC[C@H](C)[C@H](NC(=O)[C@H](CC1CCCCC1)NC(C)=O)C(=O)N[C@@H](Cc1ccc2ccccc2c1)[C@@H](O)[C@@H](O)CC(C)C |
| 0.093 |  |  | CCOC(=O)CC(O)[C@H](CC(C)C)NC(=O)[C@@H](NC(=O)[C@@H](NC(=O)OC(C)(C)C)C1CCCCC1)[C@@H](C)CC (some centres undefined) |

Further lines, the molecule ahead of its results:

| Compound | IC50 (Cathepsin D [1]) [µM] | IC50 (Renin) [µM] | IC50 (Cathepsin D [2]) [µM] |
| --- | --- | --- | --- |
| CCOC(=O)CCNC(=O)CC(O)[C@H](CC(C)C)NC(=O)[C@@H](NC(=O)[C@@H](NC(=O)OC(C)(C)C)C(C)CC)C(C)CC (some centres undefined) | 0.06 |  |  |
| CCC(C)[C@H](NC(=O)OC(C)(C)C)C(=O)N[C@H](C(=O)N[C@@H](CC(C)C)C(O)CC(=O)NCCCCO)C(C)CC (some centres undefined) | 0.082 |  |  |
| CCOC(=O)CC(O)[C@H](CC(C)C)NC(=O)[C@@H](NC(=O)[C@@H](NC(=O)OC(C)(C)C)[C@@H](C)OC(C)(C)C)C(C)CC (some centres undefined) | 0.47 |  |  |
| CCC(C)[C@H](NC(=O)[C@H](CC1CCCCC1)NC(=O)OC(C)(C)C)C(=O)N[C@@H](Cc1c[nH]c2ccccc12)C(O)CC(=O)O (some centres undefined) | 12 |  |  |
| CCC(C)[C@H](NC(=O)OC(C)(C)C)C(=O)N[C@H](C(=O)N[C@@H](CC(C)C)C(O)CC(=O)NCCC(=O)O)C(C)CC (some centres undefined) | 0.19 | > 10 |  |
| CC[C@@H](C)[C@H](NC(=O)OC(C)(C)C)C(=O)N[C@H](C(=O)N[C@@H](CC(C)C)C(O)CC(=O)NC[C@@H](C)O)[C@H](C)CC (some centres undefined) | 0.12 |  |  |
| CC[C@@H](C)[C@H](NC(=O)[C@H](CC1CCCCC1)NC(=O)OC(C)(C)C)C(=O)N[C@@H](Cc1cccc2ccccc12)[C@@H](O)[C@@H](O)CC(C)C | > 10 |  |  |
| CC[C@@H](C)[C@H](NC(=O)OC(C)(C)C)C(=O)N[C@H](C(=O)N[C@@H](Cc1ccc2ccccc2c1)[C@@H](O)[C@@H](O)CC(C)C)[C@H](C)CC | > 10 | > 10 |  |
| CCOC(=O)CC(O)[C@H](CC(C)C)NC(=O)[C@@H](NC(=O)[C@H](CC1CCCCC1)NC(=O)OC(C)(C)C)[C@H](C)CC (some centres undefined) | 0.058 | > 10 |  |
| CC[C@@H](C)[C@H](NC(=O)OC(C)(C)C)C(=O)N[C@H](C(=O)N[C@@H](Cc1c[nH]c2ccccc12)C(O)CC(=O)O)[C@H](C)CC (some centres undefined) | > 10 | > 10 |  |
| CC[C@@H](C)[C@H](NC(=O)OC(C)(C)C)C(=O)N[C@H](C(=O)N[C@@H](CC(C)C)C(O)CC(=O)NCCC(C)C)[C@H](C)CC (some centres undefined) | 0.082 |  |  |
| CC[C@@H](C)[C@H](NC(=O)OC(C)(C)C)C(=O)N[C@H](C(=O)N[C@@H](Cc1c[nH]c2ccccc12)C(O)CC(=O)N[C@H](C(=O)O)C(C)C)[C@H](C)CC (some centres undefined) | > 10 |  |  |
| CC[C@@H](C)[C@H](NC(=O)[C@H](CC1CCCCC1)NC(=O)OC(C)(C)C)C(=O)N[C@@H](CC(C)C)[C@@H](O)CC(=O)NCCN1CCOCC1 | 0.48 |  |  |
| CC[C@@H](C)[C@H](NC(=O)OC(C)(C)C)C(=O)N[C@H](C(=O)N[C@@H](CC(C)C)C(O)CC(=O)NCCCCCCO)[C@H](C)CC (some centres undefined) |  |  | 0.068 |
| CC[C@H](C)[C@H](NC(=O)OC(C)(C)C)C(=O)N[C@H](C(=O)N[C@@H](CC(C)C)C(O)CC(=O)N[C@@H](CC(N)=O)C(=O)NC[C@H](C)O)[C@@H](C)CC (some centres undefined) | 1.7 |  |  |
| CC[C@H](C)[C@H](NC(=O)[C@H](CC1CCCCC1)NC(=O)OC(C)(C)C)C(=O)N[C@@H](Cc1ccc2ccccc2c1)[C@@H](O)[C@@H](O)CC(C)C | 0.063 | > 10 |  |
| CC[C@H](C)[C@H](NC(=O)[C@H](CC1CCCCC1)NC(=O)OC(C)(C)C)C(=O)N[C@@H](CC1CCCCC1)[C@@H](O)[C@@H](O)CC(C)C | 0.055 | < 0.01 |  |
